Test results reported in patent publication US20250073244A1, “CRYSTALLINE FORMS OF PENTAAZA MACROCYCLIC RING COMPLEX” (Galera Labs, LLC, priority 2023, published 2025).

Assay: Crystallization from hot saturated solutions by fast cooling
Details: fast cooling from 50° C. (ice bath); MEK; yellow solid
Description: Approximate 100 mg of drug substance was dissolved in the minimal amount of selected solvents at 50° C. Obtained solutions were put into an ice bath. Precipitates were collected by filtration. The solid part (wet cake) was investigated by XRPD. When differences were observed, additional investigations were performed (e.g. DSC, TGA. FT-IR, PLM/SEM, etc.). When no precipitation was obtained, the solutions were put in −20° C. freezer for crystallization.

CCC(=O)[O][Mn][O]C(=O)CC.c1cc2nc(c1)CN[C@H]1CCCC[C@@H]1NCCN[C@H]1CCCC[C@@H]1NC2 [API]
purity: Yellow solid, 94.19%
